Measurements from patent EP0976747A2, “Use of 5HT-1F receptor antagonists for treating anxiety disorders” (ELI LILLY AND COMPANY, priority 1998, dated 2000).

Tested on: male Wister rats
Assay: Social interaction test of experimental anxiety
Type: in vivo
Conditions: 20 mg/kg intraperitoneal, tested 1 hour after dosing, 5 minutes observation, compared to baseline, significance at p<0.01
Method: The procedure for this assay is summarized below.
All experiments were performed on male Wister rats (Harlan laboratories, 275-300 gm). The rats were individually housed in a temperature controlled room (72°F) on a 12 hour day/night cycle. The rats were provided food and water ad libitum.
Approximately 40 mg of the test compound was weighed into a 20 mL glass vial. To this solid were added 80µL of lactic acid (85%). The mixture was sonicated for 2 minutes and then 4mL of distilled water was added in lmL increments. Sonication of this mixture was continued until all of the solid had dissolved. Following sonication, the pH of the mixture was raised by the addition of dilute aqueous sodium hydroxide until the mixture reached a pH of about 5.5.
Each rat was weighed and the test compound administered by intraperitoneal injection at 20 mg/kg of body weight. […]
Experimental anxiety was measured by a social interaction test. […] A video camera was fixed above the social interaction box and all behavioral tests were recorded. […] The amount of time that the rat which received test compound spent interacting (i.e. grooming, sniffing, crawling upon) with the other rat was recorded. […]
Social interaction data was analyzed as total interaction time in seconds and the raw scores were compared between baseline and treatment. […]

SMILES: O[C@H](COc1ccc2ccccc2c1)CN1CCC(O)(c2cnc3ccccc3c2)CC1 [Example 37, 1-((2S)-hydroxy-3-(naphth-2-yloxy)prop-1-yl)-4-hydroxy-4-(quinolin-3-yl)piperidine]
- social interaction time: significantly increase social interaction time as compared to baseline
